Measurements from patent US20120190703A1, “SALTS OF 13A-(S)DESOXYTYLOPHORININE, PREPARATION METHODS AND PHARMACEUTICAL COMPOSITIONS AND USES THEREOF” (priority 2009, published 2012).
Values joined by “and” are separate entries in the source; they are usually repeats but may differ in a detail not shown here. Equal entries are not always repeated. Where two headings read alike, the source gives them in different places. Marks after values point to notes of the source that are not given here.

Key:
Solubility in water = assay type: physicochemical
[1] = Drug distribution in brain tissue after oral administration in mice; assay type: in vivo, ICR mice; conditions: for Brain contents of (+)-13a-(S)-deoxytylophorinine (ng/ml), Mean ± SD / Brain contents of (+)-13a-(S)-deoxytylophorinine (ng/ml), individual animals 1-3: 6 mg/kg oral
Protocol: (§1) Male ICR mice. Body weight 18˜22 g.
Plasma was isolated by centrifugalization. […] 25% tissue homogenate was prepared with normal saline addition.
The drug concentration-time data in brain tissue after administered orally of (+)-13a-(S)-deoxytylophorinine tartrate, maleate and citrate were represented in Table 8˜10 and FIG. 6˜8. […] (+)-13a-(S)-deoxytylophorinine could be detected in 5 min. The peak concentration was reached after 15 min, and the compound still can be detected after 2 h after administration.

[2] = Plasma pharmacokinetics after oral administration in mice
Protocol: To determine the pharmacokinetic characters of 13a-(S)-deoxytylophorinine and its salts, the studies about plasma pharmacokinetics and the character of distribution in brain were pursued.
as §1
(+)-13a-(S)-deoxytylophorinine Tartrate, (+)-13a-(S)-deoxytylophorinine Maleate, (+)-13a-(S)-deoxytylophorinine Citrate. All were dissolved in distilled water as 0.6 mg/ml solution before experiment progressed.
72 mice were divided to 3 groups with 24 animals per group, fasting for 16 h and drinking water freely. […] Plasma was isolated by centrifugalization. After the salts were administered orally, the brain tissues of mice were collected at 5 min, 15 min, 2 h time points. 25% tissue homogenate was prepared with normal saline addition. 200 μL of homogenate and plasma were added isovolumic MeCN to precipitate protein. 5 μL of clear supernatant was analyzed by LC/MS/MS.
(+)-13a-(S)-deoxytylophorinine was dissolved in DMSO and then diluted with MeOH with concentration 10, 50, 100, 500, 1000 and 2500 ng/ml respectively. 10 μl of standard solutions of (+)-13a-(S)-deoxytylophorinine with different concentration above were added to 200 μl of blank plasma sequently to adjust the concentration to 0.5, 2.5, 5, 25, 50, 125 ng/ml respectively. MeCN was added to the solution to precipitate protein, and 5 μl of result clear supernatant was analyzed with LC/MS/MS. Linear regression was ran with the peak area of (+)-13a-(S)-deoxytylophorinine as ordinate and the concentrations as abscissa.

H22 tumor-bearing mice = conditions: intragastric once daily
Text: To determine the pharmacodynamic characters of 13a-(S)-deoxytylophorinine and its salts, the impact of these compounds to the tumor growth in H22 tumor-bearing mice was surveyed.
Male Kunming mice were obtained from the Laboratory Animal Center, Academy of Military Medical Science. Body weight 18˜22 g. 6 animals per group, totally 10 groups, 60 animals.
(+)-13a-(S)-deoxytylophorinine, (+)-13a-(S)-deoxytylophorinine Tartrate, (+)-13a-(S)-deoxytylophorinine Maleate, (+)-13a-(S)-deoxytylophorinine Citrate, Cytoxane (CTX) as positive control.
(+)-13a-(S)-deoxytylophorinine was administered at high dose (5 mg/kg) and low dose (2.5 mg/kg). Three (+)-13a-(S)-deoxytylophorinine salts were administered at high dose and low dose as equal moles with their prototype (Tartrate: 7.05 mg/kg, 3.53 mg/kg; Malate: 6.60 mg/kg, 3.30 mg/kg; Citrate: 7.90 mg/kg, 3.95 mg/kg).
Animals were reared in SPF grade circumstance to be observed for 24 h. The tumor cells liquid which resuscitated in abdominal cavity of KM mice was diluted with aseptic normal saline at 1:3 ratio. The resulting liquid was inoculated subcutaneously at forelimb with 0.2 mL every animal. After the injection over, the animals were divided to […] with 6 animals per group.
Four experimental samples were intragastric administered once daily 24 h after inoculation. The positive control CTX was intraperitoneal injected once daily. The animal body weight was recorded every day.

[3] = 6 mg/kg oral, mice, Time (min) 0.08
[4] = 6 mg/kg oral, mice, Time (min) 0.25
[5] = 6 mg/kg oral, mice, Time (min) 0.5
[6] = 6 mg/kg oral, mice, Time (min) 1
[7] = 6 mg/kg oral, mice, Time (min) 2
[8] = 6 mg/kg oral, mice, Time (min) 3
[9] = 6 mg/kg oral, mice, Time (min) 4
[10] = 6 mg/kg oral, mice, Time (min) 6
[11] = male, ICR, mouse, plasma, po, 6 mg/kg
[12] = high dose × 7 d, equal moles: prototype 5.0, tartrate 7.05, maleate 6.60, citrate 7.90 mg/kg
[13] = low dose × 7 d, equal moles: prototype 2.5, tartrate 3.53, maleate 3.30, citrate 3.95 mg/kg

Structure (SMILES): COc1ccc2c3c(c4cc(OC)c(OC)cc4c2c1)CN1CCC[C@H]1C3.O=C(O)/C=C\C(=O)O [Maleate, (+)-13a-(S)-deoxytylophorinine Maleate]
- Solubility in water (words) (Solubility in water): soluble in water
- solubility (Solubility in water; water): 44 mg/mL
- Brain contents of (+)-13a-(S)-deoxytylophorinine (ng/ml), Mean ± SD ([1]; Time (min) 5): 150.2 ± 84.8 ng/mL
- Brain contents of (+)-13a-(S)-deoxytylophorinine (ng/ml), individual animals 1-3 ([1]; Time (min) 5): 245.2 ng/mL and 82.5 ng/mL and 122.7 ng/mL
- Brain contents of (+)-13a-(S)-deoxytylophorinine (ng/ml), Mean ± SD ([1]; Time (min) 15): 150.3 ± 49.8 ng/mL
- Brain contents of (+)-13a-(S)-deoxytylophorinine (ng/ml), individual animals 1-3 ([1]; Time (min) 15): 159.3 ng/mL and 96.6 ng/mL and 194.9 ng/mL
- Brain contents of (+)-13a-(S)-deoxytylophorinine (ng/ml), Mean ± SD ([1]; Time (min) 120): 108.8 ± 74.7 ng/mL
- Brain contents of (+)-13a-(S)-deoxytylophorinine (ng/ml), individual animals 1-3 ([1]; Time (min) 120): 27.2 ng/mL and 173.7 ng/mL and 125.4 ng/mL
- Drug contents in brain compared with prototype ([1]; oral, 3 time points): higher than their prototype
- Peak concentration in blood ([2]; 6 mg/kg oral, mice): 35.4 ± 3.5 ng/mL
- Time of peak concentration in blood ([2]; 6 mg/kg oral, mice): 5 min
- t½z ([2]; 6 mg/kg oral, mice, plasma, non-compartment model): 1.72 h
- Blood concentration of (+)-13a-(S)-deoxytylophorinine (ng/ml), Mean ± SD [2, 3]: 35.4 ± 3.5 ng/mL
- Blood concentration of (+)-13a-(S)-deoxytylophorinine (ng/ml), individual animals 1-3 [2, 3]: 33.0 ng/mL and 37.9 ng/mL
- Blood concentration of (+)-13a-(S)-deoxytylophorinine (ng/ml), Mean ± SD [2, 4]: 27.4 ± 6.2 ng/mL
- Blood concentration of (+)-13a-(S)-deoxytylophorinine (ng/ml), individual animals 1-3 [2, 4]: 24.2 ng/mL and 23.5 ng/mL and 34.6 ng/mL
- Blood concentration of (+)-13a-(S)-deoxytylophorinine (ng/ml), Mean ± SD [2, 5]: 12.2 ± 4.0 ng/mL
- Blood concentration of (+)-13a-(S)-deoxytylophorinine (ng/ml), individual animals 1-3 [2, 5]: 15.7 ng/mL and 13.0 ng/mL and 7.9 ng/mL
- Blood concentration of (+)-13a-(S)-deoxytylophorinine (ng/ml), Mean ± SD [2, 6]: 9.2 ± 3.2 ng/mL
- Blood concentration of (+)-13a-(S)-deoxytylophorinine (ng/ml), individual animals 1-3 [2, 6]: 12.5 ng/mL and 6.2 ng/mL and 8.7 ng/mL
- Blood concentration of (+)-13a-(S)-deoxytylophorinine (ng/ml), Mean ± SD [2, 7]: 11.2 ± 8.0 ng/mL
- Blood concentration of (+)-13a-(S)-deoxytylophorinine (ng/ml), individual animals 1-3 [2, 7]: 2.0 ng/mL and 15.9 ng/mL and 15.7 ng/mL
- Blood concentration of (+)-13a-(S)-deoxytylophorinine (ng/ml), Mean ± SD [2, 8]: 8.6 ± 6.6 ng/mL
- Blood concentration of (+)-13a-(S)-deoxytylophorinine (ng/ml), individual animals 1-3 [2, 8]: 3.6 ng/mL and 16.1 ng/mL and 6.3 ng/mL
- Blood concentration of (+)-13a-(S)-deoxytylophorinine (ng/ml), Mean ± SD [2, 9]: 2.8 ± 0.9 ng/mL
- Blood concentration of (+)-13a-(S)-deoxytylophorinine (ng/ml), individual animals 1-3 [2, 9]: 2.6 ng/mL and 2.0 ng/mL and 3.8 ng/mL
- Blood concentration of (+)-13a-(S)-deoxytylophorinine (ng/ml), Mean ± SD [2, 10]: 1.2 ± 1.0 ng/mL
- Blood concentration of (+)-13a-(S)-deoxytylophorinine (ng/ml), individual animals 1-3 [2, 10]: 2.3 ng/mL and 1.0 ng/mL and 0.4 ng/mL
- AUC(0-inf) [2, 11]: 49.9 ng·h/mL
- AUC(0-t) [2, 11]: 46.9 ng·h/mL
- Cmax [2, 11]: 35.5 ng/mL
- MRT inf [2, 11]: 2.18 h
- MRT last [2, 11]: 1.78 h
- Tmax [2, 11]: 4.8 min
- Animal No. (Initial/Final) (H22 tumor-bearing mice; [12]): 6/4
- Body Weight(g) Final (H22 tumor-bearing mice; [12]): 13.62 ± 2.08 g
- Body Weight(g) Initial (H22 tumor-bearing mice; [12]): 21.17 ± 0.98 g⁻¹
- Inhibition (%) (H22 tumor-bearing mice; [12]): 73.58** %
- Tumor Weight (g, mean ± SD) (H22 tumor-bearing mice; [12]): 0.30 ± 0.24 g
- Animal No. (Initial/Final) (H22 tumor-bearing mice; [13]): 6/6
- Body Weight(g) Final (H22 tumor-bearing mice; [13]): 23.79 ± 0.52 g
- Body Weight(g) Initial (H22 tumor-bearing mice; [13]): 22.50 ± 1.05 g⁻¹
- Inhibition (%) (H22 tumor-bearing mice; [13]): 45.56%
- Tumor Weight (g, mean ± SD) (H22 tumor-bearing mice; [13]): 0.62 ± 0.31 g
